Values quoted from earlier work as cited in patent US6432966B1, “Antiviral combinations” (SmithKline Beecham Corporation, priority 1999, dated 2002).

Legend:
[1] = tested on: HBV
[2] = tested on: Hepatitis B virus; conditions: oral, woodchucks
[3] = tested on: HBV; conditions: in vitro

Structure (SMILES)	patients maintaining undetectable levels of virus ([1]; through to the end of the second year) [%]	levels of viral replication in patients ([1]; two year study)	efficacy against Hepatitis B virus [2]	anti-HBV activity [3]
Nc1ccn([C@@H]2CS[C@H](CO)O2)c(=O)n1 (relative stereo) [lamivudine, (2R,cis)-4-amino-1-(2-hydroxymethyl-1,3-oxathiolan-5-yl)-pyrimidin-2-one]	52	most patients showed substantially reduced levels of viral replication	–	–
C=C1[C@H](CO)[C@@H](O)C[C@@H]1n1cnc2c(=O)[nH]c(N)nc21 [BMS-200475]	–	–	effective against Hepatitis B virus in woodchucks	anti-HBV activity in vitro
